The values below come from paper PMC3573263 (Chemical biology & drug design, 2013).

One test deals with wild-type YopH (Yersinia pestis, UniProt O68720). Description: biochemical. In kind it is binding.
Test [1] deals with T1, YopH (Yersinia pestis, UniProt O68720). To be noted: cited from earlier work.
Test [2] deals with T1, YopH.
The target of the next test is N-terminus of YopH. To be noted: read-out: equilibrium dissociation constant; cited from earlier work.
The target of test [3] is YopH N-terminus (Yersinia pestis) (UniProt P08538). Description: NMR. To be noted: cited from earlier work.
Chain of YopH N-terminus (Yersinia pestis) (P08538 1-129): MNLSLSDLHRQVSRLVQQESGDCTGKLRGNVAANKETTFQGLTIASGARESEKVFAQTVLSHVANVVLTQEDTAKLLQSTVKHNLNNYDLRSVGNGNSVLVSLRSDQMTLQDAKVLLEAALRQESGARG

Chain of wild-type YopH (O68720 164-468 limits assumed): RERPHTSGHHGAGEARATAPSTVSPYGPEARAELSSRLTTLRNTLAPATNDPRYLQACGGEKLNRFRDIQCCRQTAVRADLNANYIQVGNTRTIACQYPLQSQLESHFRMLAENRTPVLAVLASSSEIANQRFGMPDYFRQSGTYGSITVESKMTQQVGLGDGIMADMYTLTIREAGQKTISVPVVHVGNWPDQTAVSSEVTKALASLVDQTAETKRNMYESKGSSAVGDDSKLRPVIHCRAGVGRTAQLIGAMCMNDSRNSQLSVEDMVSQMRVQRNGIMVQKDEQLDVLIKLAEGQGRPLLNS
T1 sequence (O68720 164-468 limits assumed): as above

At wild-type YopH, `N[C@@H](Cc1ccc(OP(=O)(O)O)cc1)C(=O)O` [L-phosphotyrosine, reference compound] gave a Kd of 24400 µM, a koff of 0.679, a kon of 0.278 M⁻¹ s⁻¹ and a ΔG of -2.2 kcal/mol.
As to `O=C(O)c1ccc(/C=N/OCc2ccc(-c3cccc(C(F)(F)P(=O)(O)O)c3)cc2)o1` [compound 3, 5-((1E)-(((4-(3-(difluoro(phosphono)methyl)phenyl)phenyl)methoxy)imino)methyl)furan-2-carboxylic acid], on wild-type YopH, the Kd is 239 µM, the koff is given as 0.945 (0.13) and the kon was found to be 44.5 M⁻¹ s⁻¹.
Take `O=[N+]([O-])c1ccc(OP(=O)(O)O)cc1` [pNPP, para-nitrophenylphosphate]: the “catalytic activity of YopH toward substrate, lower than the pTyr-containing peptide” value on YopH [1] is 1300 fold.
Take “(difluoro((3-(4-((((E)-furan-2-ylmethylidene)amino)oxy)methyl)phenyl)phenyl))methyl) phosphonic acid [compound 2]”: on wild-type YopH, the koff is on record as 2.15 (0.89) and the ΔG is recorded as −5.28 (0.20) kcal/ mol.
For the compound “(difluoro((3-(4-((((E)-furan-3-ylmethylidene)amino)oxy)methyl)phenyl)phenyl))methyl) phosphonic acid [compound 1]”, on wild-type YopH, the koff was 1.95 (0.95), the kon was 73.4 (34.8) 1/Ms and the ΔG is reported as −4.88 (0.43) kcal/ mol. At YopH [2], the “inhibition of PTPase activity on microarrayed pTyr-EGFR peptide (in words)” value is recorded as “dose-response relationship”.
On to DADE-pYLIPQQG, for which the “rate constant for dephosphorylation” value on YopH [1] is 2.23e+07 M⁻¹ s⁻¹.
Take DADEpYL [hexapeptide]: the Kd on N-terminus of YopH was 10 µM.
For the compound “EGFR phosphopeptide (from UniProt P00533)”, the Kd in test [3] is 10 µM.
